Assay results from US20120198764A1, “METHOD FOR REDUCING PHYTOTOXICITY” (Ishihara Sangyo Kaisha, Ltd., priority 2009, published 2012).
Read-outs that look alike come from different tables or passages of the source.

Experiments:
Settings in all cases: in vivo
[1] = test system: bentgrass (breed: pencross); assay: Test Example 3: ground plot test, TurfGreen BG applied 1 or 3 days before flazasulfuron
Protocol: (§1) On 13th day after the treatment with flazasulfuron, the state of growth of bentgrass was visually observed and evaluated in accordance with growth inhibition rate (%)=0 (equivalent to the non-treated area) to 100 (complete kill), and thereby the results shown in Table 1 were obtained. Further, the test was carried out in duplicate.
(§2) Among bentgrass (breed: pencross) planted in sod state on ground in 0.5 m^2 (5.0×10^−5 ha, 1 m×0.5 m) in the present invention area A, the present invention area B, comparative area and non-treated area, the bentgrass in the present invention area A, the present invention area B and comparative area were subjected to foliar treatment with a spray liquid prepared by diluting a predetermined amount (corresponding to flazasulfuron: 6.25 g a.i./ha) of SHIBAGEN DF (tradename, the same as in Test Example 1) with water containing 0.02 wt % of Kusa-rino (tradename, the same as in Test Example 1) in an amount of about 2,000 L/ha by a hand portable pump sprayer. […]
On 14th day after the treatment with flazasulfuron, the state of growth of the bentgrass was evaluated in the same manner as in Test Example 1, and thereby the results shown in Table 3 were obtained. […]

[2] = test system: bentgrass (breed: pencross)
Protocol: as §1
(§3) 1/1,000,000 ha pots were prepared, as the present invention area, comparative area and non-treated area, soil was put into them, and bentgrass (breed: pencross) in sod state was planted thereon. After the bentgrass root-took on soil, a spray liquid was prepared by diluting Pigment Green 7 with water to 125 times, and the bentgrass in the present invention area was subjected to foliar treatment with the spray liquid in an amount of about 1,000 L/ha by a small spray gun. After 1 day, a spray liquid was prepared by diluting a predetermined amount (corresponding to flazasulfuron: 10 g a.i./ha) of SHIBAGEN DF (tradename, the same as in Test Example 1) with water containing 0.02 wt % of Kusa-rino (tradename, the same as in Test Example 1), and the bentgrass in the present invention area and comparative area were subjected to foliar treatment with the spray liquid in an amount of about 2,000 L/ha by a small spray gun.
On 7th day after the treatment with flazasulfuron, the state of growth of bentgrass was evaluated in the same manner as in Test Example 1, and thereby the results shown in Table 9 were obtained. Further, the test was carried out in triplicate.

[3] = test system: bentgrass (breed: pencross); assay: Test Example 7: pot test, copper phthalocyanine or Prussian Blue applied 1 day before flazasulfuron
Protocol: as §1
as §3, with “copper phthalocyanine or Prussian Blue” for “Pigment Green 7”, “1,000 times or 500” for “125”, “5” for “10”
On 8th day after the treatment with flazasulfuron, the state of growth of bentgrass was evaluated in the same manner as in Test Example 1, and thereby the results shown in Table7 were obtained. Further, the test was carried out in duplicate.

[4] = test system: bentgrass (breed: pencross); assay: Test Example 5: pot test, colorants applied 1 day before flazasulfuron
Protocol: as §1
1/1,000,000 ha pots were prepared, as the present invention area, comparative area and non-treated area, soil was put into them, and bentgrass (breed: pencross) in sod state was planted thereon. After the bentgrass root-took on soil, a spray liquid was prepared by diluting a colorant for turfgrass (tradename: Green Way (pigment containing metal ions), manufactured by Otsuka Chemical Co., Ltd.), (tradename: Green Way Sayaka (pigment containing metal ions), manufactured by Otsuka Chemical Co., Ltd.) or (tradename: Clear Green L (copper phthalocyanine), manufactured by Ohkawaya Co., Ltd.) with water to 50 times, and the bentgrass in the present invention area was subjected to foliar treatment with the spray liquid in an amount of about 2,000 L/ha by a small spray gun. […]
On 7th day after the treatment with flazasulfuron, the state of growth of bentgrass was evaluated in the same manner as in Test Example 1, and thereby the results shown in Table 5 were obtained. […]

[5] = test system: bentgrass (breed: pencross); assay: Test Example 8: pot test, Prussian Blue applied 5 days after flazasulfuron
Protocol: as §1
as §3, with “diluting” for “diluting Pigment Green 7 with water to 125 times, and the bentgrass in the present invention area was subjected to foliar treatment with the spray liquid in an amount of about 1,000 L/ha by a small spray gun. After 1 day, a spray liquid was prepared by diluting”, “5” for “10”, “gun. […]” for “gun.”
On 7th day after the treatment with Prussian Blue, the state of growth of bentgrass was evaluated in the same manner as in Test Example 1, and thereby the results shown in Table 8 were obtained. […]

[6] = test system: bentgrass (breed: pencross); assay: Test Example 2: pot test, TurfGreen BG applied 1 day after flazasulfuron
Protocol: as §1
as §3, with “With respect” for “After the bentgrass root-took on soil, a spray liquid was prepared by diluting Pigment Green 7 with water”, “to” for “to 125 times, and”, “and comparative area, after” for “was subjected to foliar treatment with”, “bentgrass root-took on soil,” for “spray liquid in an amount of about 1,000 L/ha by a small spray gun. After 1 day,”, “5” for “10”, “gun. […]” for “gun.”
On 7th day after the treatment with TurfGreen BG, the state of growth of bentgrass was evaluated in the same manner as in Test Example 1, and thereby the results shown in Table 2 were obtained. […]

[7] = test system: bentgrass (breed: pencross); assay: Test Example 1: pot test, TurfGreen BG applied 7 days before flazasulfuron
Protocol: 1/300,000 ha pots were prepared, as the present invention area, comparative area and non-treated area, soil was put into them, and bentgrass (breed: pencross) in sod state (state of mat) was planted thereon. With respect to the bentgrass in the present invention area, after the bentgrass root-took on soil, a spray liquid was prepared by diluting a colorant for turfgrass (tradename: TurfGreen BG (containing chlorinated copper phthalocyanine), manufactured by Nisso Green Co., Ltd.) with water to 50 times, and the bentgrass was subjected to foliar treatment with the spray liquid in an amount of about 2,000 L/ha by a small spray gun. […]
On 13th day after the treatment with flazasulfuron, the state of growth of bentgrass was visually observed and evaluated in accordance with growth inhibition rate (%)=0 (equivalent to the non-treated area) to 100 (complete kill), and thereby the results shown in Table 1 were obtained. […]

[8] = test system: bentgrass (breed: pencross); assay: Test Example 4: ground plot test, TurfGreen BG applied 7 days after flazasulfuron
Protocol: as §1
as §2, with “planted on ground” for “planted”, “state” for “state on ground”, “m) of” for “m) in”, “invention area,” for “invention area A, the present invention area B,”, “the bentgrasses” for “the bentgrass”, “area” for “area A, the present invention area B”
Prior to the treatment with TurfGreen BG or on 7th day after the treatment with TurfGreen BG, the state of growth of bentgrass was evaluated in the same manner as in Test Example 1, and thereby the results shown in Table 4 were obtained. […]

[9] = test system: bentgrass (breed: pencross); assay: Test Example 6: ground plot test, FULLGREEN S applied 1 day before or after flazasulfuron
Protocol: as §1
as §2, with “planted on ground” for “planted”, “state” for “state on ground”, “m) of” for “m) in”, “a small spray gun.” for “a hand portable pump sprayer.”
On 7th day after the treatment with flazasulfuron, the state of growth of bentgrass was evaluated in the same manner as in Test Example 1, and thereby the results shown in Table 6 were obtained. […]

**Q.** With COc1cc(OC)nc(NC(=O)NS(=O)(=O)c2ncccc2C(F)(F)F)n1 [flazasulfuron] as the compound, how does the “State of growth of bentgrass, Growth inhibition rate (%)” value (from here on “State … Growth inhibition rate (%)”) [1] read?
**A.** The value was 40%.

**Q.** What about the “State … Growth inhibition rate (%)” value [2] of the same compound?
**A.** The value was 56%.

**Q.** What about the “State … Growth inhibition rate (%)” value [3] of the same compound?
**A.** The value was 55%.

**Q.** What about the “State … Growth inhibition rate (%)” value [4] of the same compound?
**A.** The value was 53%.

**Q.** What about the “State … Growth inhibition rate (%)” value [5] of the same compound?
**A.** The value was 54%.

**Q.** And the “State … Growth inhibition rate (%)” value [6]?
**A.** The value was 48%.

**Q.** What about the “State … Growth inhibition rate (%)” value [7] of the same compound?
**A.** Its value is 50%.

**Q.** What about the “State … Growth inhibition rate (%)” value [8] of the same compound?
**A.** Its value is 30%.

**Q.** And the “State … Growth inhibition rate (%)” value [9]?
**A.** Its value is 31%.

**Q.** Which results are given for Pigment Green 7?
**A.** State of growth of bentgrass, Growth inhibition rate (%) [2]: 50%; phytotoxicity due to flazasulfuron, compared with comparative area [2]: reduced

**Q.** What does the source list for [Cu+2].c1ccc2c(c1)-c1nc-2nc2[n-]c(nc3nc(nc4[n-]c(n1)c1ccccc41)-c1ccccc1-3)c1ccccc21 [copper phthalocyanine]?
**A.** State of growth of bentgrass, Growth inhibition rate (%) [3]: 40%; phytotoxicity due to flazasulfuron, compared with comparative area [3]: reduced
